Experimental data reported in patent publication US7470705B2, “Compounds and methods for treating dyslipidemia” (Eli Lilly and Company, priority 2004, dated 2008).

These compounds were tested on transgenic mice that express both human CETP and human apolipoprotein A-1 (assay: Assay of plasma lipids in vivo (HDL cholesterol elevation)). Settings: single oral dose 30 mg/kg; 8 hr after dosing; serum HDL cholesterol relative to control; human CETP/human apoA-1 transgenic mice.
Experimental: Assay of Plasma Lipids In Vivo
Activity of compounds of this invention in vivo can be determined by comparing the level of elevation of HDL cholesterol relative to control by a given amount of a compound in a CETP-containing animal species. A strain of transgenic mice that express both human CETP and human apolipoprotein A-1 (Taconic, Germantown, N.Y.) is used to test compounds of this invention. Test compounds are administered once orally in selected aqueous or oil based vehicles. At various times after dosing, ranging from 4 h to 24 h, blood is obtained. Blood is allowed to clot and serum is obtained by centrifugation. HDL cholesterol levels in the serum is determined by HDL-C plus reagents (Roche/Hitachi, Indianapolis, Ind.) with a clinical chemistry analyzer (Roche/Hitachi, Indianapolis, Ind.). Additional serum lipids can be analyzed by enzymatic methods. Lipids in the VLDL, LDL and HDL fractions are analyzed by enzymatic methods after precipitation or size exclusion chromatography.
In the case of `CCC1CC(N(Cc2cc(C(F)(F)F)cc(C(F)(F)F)c2)c2nnn(C)n2)c2nc(OC)ccc2N1C(=O)OC(C)C` (racemic) [Example 8, (+/−)-cis-4-[(3,5-Bis-trifluoromethyl-benzyl)-2-methyl-2H-tetrazol-5-yl)-amino]-2-ethyl-6-methoxy-3,4-dihydro-2H-[1,5]naphthyridine-1-carboxylic acid isopropyl ester], the “% HDL cholesterol increase” value is reported as 313%. `CC(C)OC(=O)N1c2ccc(C(F)(F)F)nc2C(N(Cc2cc(C(F)(F)F)cc(C(F)(F)F)c2)c2nnn(C)n2)CC1C1CC1` (racemic) [Example 52, (+/−)-cis-4-[(3,5-Bis-trifluoromethyl-benzyl)-(2methyl-2H-tetrazole-5-yl)-amino]-2-cyclopropyl-6-trifluoromethyl-3,4-dihydro-2H-[1,5]naphthyridine-1-carboxylic acid isopropyl ester] was tested, and the “% HDL cholesterol increase” value was 66%. For `CC[C@H]1C[C@@H](N(Cc2cc(C(F)(F)F)cc(C(F)(F)F)c2)c2nnn(CCO)n2)c2nc(C(F)(F)F)ccc2N1C(=O)OC(C)C` (stereo in doubt) [Example 18, (2S,4R)-4-[(3,5-Bis-trifluoromethyl-benzyl)-[2-(2-hydroxy-ethyl)-2H-tetrazol-5-yl)-amino]-2-ethyl-6-trifluoromethyl-3,4-dihydro-2H-[1,5]naphthyridine-1-carboxylic acid isopropyl ester], the “% HDL cholesterol increase” value was 187%. With `CC[C@@H]1C[C@H](N(Cc2cc(C(F)(F)F)cc(C(F)(F)F)c2)c2nnn(C)n2)c2nc(C(F)(F)F)ccc2N1C(=O)OC(C)C` [Example 11] the “% HDL cholesterol increase” value was 134%. In the case of `CC[C@@H]1C[C@H](N(Cc2cc(C(F)(F)F)cc(C(F)(F)F)c2)c2nnn(CCN)n2)c2nc(C(F)(F)F)ccc2N1C(=O)OC(C)C` [Example 15, (2R,4S)-cis-4-[[2-(2-Amino-ethyl)-2H-tetrazol-5-yl]-(3,5-bis-trifluoromethyl-benzyl)-amino]-2-ethyl-6-trifluoromethyl-3,4-dihydro-2H-[1,5]naphthyridine-1-carboxylic acid isopropyl ester], the “% HDL cholesterol increase” value is reported as 91%.
